Measured values as given in US6787525B1, “Glyceryl nucleotides, method for the production thereof and their use” (priority 1998, dated 2004).

Tests used:
A498 = assay: In vitro cytostatic effect (SRB): A498, Kidney cancer
HCC-2998 = assay: In vitro cytostatic effect (SRB): HCC-2998, Intestinal cancer
HOP-92 = assay: In vitro cytostatic effect (SRB): HOP-92, Lung cancer
[1] = read-out: LC50, 48-hour incubation

With `CCCCCCCCCCCCCCCCCCOC(COP(=O)(O)OCC1OC(n2cc(F)c(=O)[nH]c2=O)CC1O)COP(=O)(O)OCC1OC(n2ccc(N)nc2=O)C(O)C1O` (racemic) [NSC 698688-A/1, arabinocytidylyl-(5′→1)-2-O-octadecyl-rac-glycerylyl-(3→5′)-5-fluoro-2′-deoxyuridine] the GI50 (A498; 48-hour incubation) was 0.319 µM, the TGI (A498; 48-hour incubation) was greater than 1.00E − 04 mol/l and the CC50 (A498; [1]) was greater than 100 µM. For the same compound, the GI50 (HCC-2998; 48-hour incubation) was 0.0588 µM, the TGI (HCC-2998; 48-hour incubation) was 3.50E − 05 mol/l and the CC50 (HCC-2998; [1]) was greater than 100 µM. It also gave a GI50 (HOP-92; 48-hour incubation) of 0.0802 µM, a TGI (HOP-92; 48-hour incubation) of 8.99E − 05 mol/l and a CC50 (HOP-92; [1]) greater than 100 µM.
